Data reported in PubChem BioAssay AID588465 (NMMLSC, 2011).

Molecular target: Beta-adrenergic receptor kinase 1 (Homo sapiens) (UniProt P25098)
Experiment: GRK2 kinase inhibitors, rhodopsin substrate, late-stage follow-up, orthogonal assay for GRK2 aptamer-displacement inhibitor project, biochemical, set 1 (AID 588465)
Conditions: GRK2 rhodopsin phosphorylation, 32P incorporation, ROS; at 200 µM; stronger effect = lower value

Sequence of Beta-adrenergic receptor kinase 1 (Homo sapiens) (P25098 whole entry, looked up): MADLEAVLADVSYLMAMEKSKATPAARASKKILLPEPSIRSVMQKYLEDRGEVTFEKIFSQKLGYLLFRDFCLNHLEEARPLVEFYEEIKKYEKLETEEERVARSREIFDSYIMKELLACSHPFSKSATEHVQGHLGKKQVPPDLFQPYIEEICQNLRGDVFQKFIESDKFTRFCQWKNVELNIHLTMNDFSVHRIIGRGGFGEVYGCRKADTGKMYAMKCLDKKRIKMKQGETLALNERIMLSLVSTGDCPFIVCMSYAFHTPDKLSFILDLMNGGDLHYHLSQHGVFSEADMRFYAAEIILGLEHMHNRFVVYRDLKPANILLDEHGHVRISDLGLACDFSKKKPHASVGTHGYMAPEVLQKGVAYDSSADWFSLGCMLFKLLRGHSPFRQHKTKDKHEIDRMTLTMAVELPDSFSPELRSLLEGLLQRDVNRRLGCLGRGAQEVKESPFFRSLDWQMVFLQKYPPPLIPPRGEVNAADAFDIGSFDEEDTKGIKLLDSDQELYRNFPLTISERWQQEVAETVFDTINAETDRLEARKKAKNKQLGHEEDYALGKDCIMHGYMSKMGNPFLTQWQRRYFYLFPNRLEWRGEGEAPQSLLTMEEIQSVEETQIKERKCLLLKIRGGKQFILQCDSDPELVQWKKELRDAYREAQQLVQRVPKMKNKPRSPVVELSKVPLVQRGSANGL

SMILES	percent response (negative = inhibition)
O=C(O)C1CC(=O)N(c2ccc3c(c2)OCCO3)C1 (stereo not given)	-77.7%
Cc1cc2ccccc2n1CCNC(=O)c1cccs1	-42.4%
CCc1ccccc1NC(=O)CCS(=O)(=O)c1ccc(Br)cc1	-26%
COc1ccc(CNC(=O)CCS(=O)(=O)c2ccc(Br)cc2)cc1	-59.5%
O=C(CCS(=O)(=O)c1ccc(Br)cc1)Nc1cc(F)ccc1F	-37.5%
Cc1cccc(N2CCN(C(=O)CCS(=O)(=O)c3ccc(Br)cc3)CC2C)c1 (stereo not given)	-24%
Cc1cc(=O)[nH]c(SCC(=O)NCc2ccco2)n1	-17.7%
CCOc1ccc(CCNC(=O)CCS(=O)(=O)c2ccc(Br)cc2)cc1OCC	-69.7%
O=C(CCS(=O)(=O)c1ccc(Br)cc1)NCCc1ccc(Cl)cc1	-35.6%
Cc1ccccc1NC(=O)CCS(=O)(=O)c1ccc(Br)cc1	-12.6%
